The values that follow come from patent US6262241A, “Compound for detecting and modulating RNA activity and gene expression” (Isis Pharmaceuticals, Inc., priority 1995, dated 2001).

In data set [1] the test system is nucleases. The settings on record: cited from earlier work.
In data set [2] the test system is Y STRAND 3'-GAG CAU GGY' AAG GCC AGG (SEQ ID NO: 7). Format: binding.

For the molecule poly(2'-chloro-2'-deoxyuridylic acid), the nuclease resistance result in data set [1] was “resistant to various nucleases”.

For the molecule `Nc1cc2c(ncn2[C@@H]2O[C@H](CO)[C@@H](O)[C@H]2O)c(=O)[nH]1` [3-deazaguanosine], in data set [2], the “Tm, G-C” value is 59 C; the “delta Tm, G-A” value was -2 C; the “delta Tm, G-Bu” value is recorded as -7 C; the “delta Tm, G-G” value is listed as “+1 C”. Moreover, in data set [2], the “delta Tm, G-T” value is -1 C.

poly(2'-chloro-2'-deoxycytidylic acid): the nuclease resistance entry in data set [1] was “resistant to various nucleases”.
